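Following 48 hours of exposure in 96-well plates, responses at five concentrations were used to interpolate endpoints linearly. TGI is the concentration that stops growth completely.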
Assays:
Experiment in all cases: growth of human tumour cells (NCI), 48 h
[1] = system: MCF7 breast
[2] = system: DU-145 prostate
[3] = system: SF-268 CNS
[4] = system: K-562 leukemia
[5] = system: CAKI-1 renal
[6] = system: SW-620 colon
[7] = system: T-47D breast
[8] = system: NCI/ADR-RES ovarian
[9] = system: MOLT-4 leukemia
[10] = system: NCI-H460 lung
[11] = system: OVCAR-5 ovarian
[12] = system: LOX IMVI melanoma
[13] = system: NCI-H23 lung
[14] = system: EKVX NSCLC
[15] = system: CCRF-CEM leukemia
[16] = system: A549 NSCLC
[17] = system: NCI-H226 lung
[18] = system: SK-OV-3 ovarian
[19] = system: UACC-62 melanoma
[20] = system: MDA-N
[21] = system: UO-31 renal
[22] = system: SK-MEL-5 melanoma
[23] = system: HL-60(TB) leukemia
[24] = system: M14 melanoma
[25] = system: U251 CNS
[26] = system: SF-295 CNS
[27] = system: PC-3 prostate
[28] = system: SK-MEL-28 melanoma
[29] = system: RPMI-8226 leukemia
[30] = system: ACHN renal
[31] = system: HT29 colon
[32] = system: A498 renal
[33] = system: TK-10 renal
[34] = system: SK-MEL-2 melanoma
[35] = system: OVCAR-4 ovarian
[36] = system: SNB-75 CNS
[37] = system: HS 578T breast
[38] = system: HCC-2998 colon
[39] = system: SNB-19 CNS
[40] = system: HCT-116 colon
[41] = system: HOP-62 NSCLC
[42] = system: IGROV1 ovarian
[43] = system: HCT-15 colon
[44] = system: MDA-MB-435
[45] = system: KM12 colon
[46] = system: OVCAR-8 ovarian
[47] = system: UACC-257 melanoma
[48] = system: SF-539 CNS
[49] = system: MALME-3M melanoma
[50] = system: 786-0 renal
[51] = system: COLO 205 colon
[52] = system: SR leukemia
[53] = system: MDA-MB-231 breast
[54] = system: SN12C renal
[55] = system: RXF 393 renal
[56] = system: OVCAR-3 ovarian
[57] = system: NCI-H522 lung
[58] = system: HOP-92 NSCLC

O=C(/C=C/c1ccsc1)c1ccc(Cl)cc1
TGI [1]: > 100 µM | TGI [2]: > 100 µM | TGI [3]: > 100 µM | TGI [4]: 95.7 µM | TGI [5]: > 100 µM | TGI [6]: > 100 µM | TGI [7]: > 100 µM | TGI [8]: > 100 µM | TGI [9]: 43.7 µM | TGI [10]: > 100 µM | TGI [11]: > 100 µM | TGI [12]: 47.8 µM | TGI [13]: > 100 µM | TGI [14]: > 100 µM | TGI [15]: 53.3 µM | TGI [16]: > 100 µM | TGI [17]: > 100 µM | TGI [18]: > 100 µM | TGI [19]: > 100 µM | TGI [20]: > 100 µM | TGI [21]: > 100 µM | TGI [22]: > 100 µM | TGI [23]: 49.8 µM | TGI [24]: > 100 µM | TGI [25]: > 100 µM | TGI [26]: > 100 µM | TGI [27]: > 100 µM | TGI [28]: > 100 µM | TGI [29]: 64.8 µM | TGI [30]: > 100 µM | TGI [31]: > 100 µM | TGI [32]: > 100 µM | TGI [33]: > 100 µM | TGI [34]: > 100 µM | TGI [35]: > 100 µM | TGI [36]: > 100 µM | TGI [37]: > 100 µM | TGI [38]: > 100 µM | TGI [39]: > 100 µM | TGI [40]: > 100 µM | TGI [41]: > 100 µM | TGI [42]: > 100 µM | TGI [43]: > 100 µM | TGI [44]: > 100 µM | TGI [45]: > 100 µM | TGI [46]: > 100 µM | TGI [47]: > 100 µM | TGI [48]: > 100 µM | TGI [49]: 95.3 µM | TGI [50]: > 100 µM | TGI [51]: > 100 µM | TGI [52]: 43.7 µM | TGI [53]: > 100 µM | TGI [54]: > 100 µM

COP(C)(=O)C1=CCN(C(=O)OCC[Si](C)(C)C)CC1 (stereo not given)
TGI [1]: > 100 µM | TGI [2]: > 100 µM | TGI [55]: > 100 µM | TGI [3]: > 100 µM | TGI [5]: > 100 µM | TGI [6]: > 100 µM | TGI [7]: > 100 µM | TGI [8]: > 100 µM | TGI [10]: > 100 µM | TGI [11]: > 100 µM | TGI [12]: > 100 µM | TGI [56]: > 100 µM | TGI [13]: > 100 µM | TGI [14]: > 100 µM | TGI [15]: > 100 µM | TGI [16]: > 100 µM | TGI [17]: > 100 µM | TGI [18]: > 100 µM | TGI [19]: > 100 µM | TGI [20]: > 100 µM | TGI [21]: > 100 µM | TGI [22]: > 100 µM | TGI [24]: > 100 µM | TGI [25]: > 100 µM | TGI [26]: > 100 µM | TGI [57]: > 100 µM | TGI [27]: > 100 µM | TGI [28]: > 100 µM | TGI [29]: > 100 µM | TGI [30]: > 100 µM | TGI [31]: > 100 µM | TGI [32]: > 100 µM | TGI [33]: > 100 µM | TGI [34]: > 100 µM | TGI [35]: > 100 µM | TGI [36]: > 100 µM | TGI [37]: > 100 µM | TGI [38]: > 100 µM | TGI [39]: > 100 µM | TGI [41]: > 100 µM | TGI [42]: > 100 µM | TGI [43]: > 100 µM | TGI [44]: > 100 µM | TGI [45]: > 100 µM | TGI [46]: > 100 µM | TGI [47]: > 100 µM | TGI [49]: > 100 µM | TGI [50]: > 100 µM | TGI [51]: > 100 µM | TGI [58]: > 100 µM | TGI [53]: > 100 µM

— PubChem BioAssay (NCI)
